# Results: PMC9892719, “High-throughput screening method for discovering CatSper inhibitors using membrane depolarization caused by external calcium chelation and fluorescent cell barcoding” (Frontiers in Cell and Developmental Biology, 2023)
# Molecular target: T1, CatSper (Mus musculus, UniProt A2ARP9+Q80W99+Q8BVN3+Q91ZR5)
# T1 construct: gene Catsper1; native channel complex in live cauda epididymal sperm; pore of four homologous subunits CatSper 1-4 plus auxiliary subunits; with Cation channel sperm-associated auxiliary subunit beta; Cation channel sperm-associated auxiliary subunit gamma 2; Cation channel sperm-associated auxiliary subunit delta; Cation channel sperm-associated auxiliary subunit epsilon; Cation channel sperm-associated auxiliary subunit zeta; Cation channel sperm-associated targeting subunit tau; Cation channel sperm-associated auxiliary subunit TMEM262; Solute carrier organic anion transporter family member 6C1; Cation channel sperm-associated auxiliary subunit TMEM249
# Test: EGTA-induced Na+ depolarization of live sperm, DiSC3([…]) fluorescence, flow cytometry and spectrofluorometry
# Type: cell-based
# Conditions: non-capacitated sperm, NC TYH medium pH 7.4, 3.5 mM EGTA (free Ca2+ 138 nM)
smiles,measurement,value
O=C(c1cccs1)c1no[n+]([O-])c1C(=O)c1cccs1 [HC-056456],block of EGTA-induced depolarization at 10 μM,HC-056456 inhibits CatSper in a concentration-dependent manner
